Measured values: US5677419A, “Cyclic vasoactive peptide analogs” (Hoffmann-La Roche Inc., priority 1994, dated 1997)
Where a SMILES comes first, the peptide text is derived from it. Bridges are numbered along the chain shown (N, C = ends). [ ]: non-standard residue; d: D form. Phe(4-F) = N[C@@H](Cc1ccc(F)cc1)C(=O)O; Nle = CCCC[C@H](N)C(=O)O

Legend:
guinea pigs = test: In vivo bronchodilator activity by tracheal instillation against histamine challenge; design: species or system guinea pig; settings: anesthetized male guinea pigs, inhibition of histamine (i.v.)-induced rise in tracheal pressure
Method in brief: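 Urethane-anaesthetised male Hartley guinea pigs (400-600 g) received compound in water by intratracheal instillation, then were paralysed, ventilated and challenged with histamine […] i.v. Tracheal pressure change gave % inhibition (≥3 animals/group); ED50 from log dose-response; duration as time until inhibition fell to 40%.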

[1] = system: guinea pig tracheal smooth muscle; test: Tracheal relaxant activity of VIP analogs on isolated guinea pig tracheal rings; type: cell-based; settings: cumulative concentration response, relaxation as % of maximum response to VIP (10^-6 M=100%), three tissues pooled, linear regression
Method in brief: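 Male guinea pig tracheal rings under 1.5 g resting tension in Krebs at 37° C, 95% O2/5% CO2, isometric tension. Cumulative concentration-response curves; relaxation as % of response to 10^-6 M VIP added at end; three tissues pooled, EC50 by linear regression.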

SMILES | Bronchodilator activity of VIP analogs in guinea pigs, ED50 (guinea pigs) [μg] | EC50 [1] [pM]
CCCC[C@H](NC(=O)[C@H](CCC(N)=O)NC(=O)[C@H](CCCCN)NC(=O)[C@H](CCCNC(=N)N)NC(=O)[C@H](CC(C)C)NC(=O)[C@H](CCCCN)NC(=O)[C@@H](NC(=O)[C@H](Cc1ccc(O)cc1)NC(=O)[C@H](CC(N)=O)NC(=O)[C@H](CCC(=O)O)NC(=O)[C@@H](NC(=O)[C@H](Cc1ccc(F)cc1)NC(=O)[C@@H](NC(=O)[C@H](C)NC(=O)[C@H](CC(=O)O)NC(=O)[C@H](CO)NC(=O)[C@H](Cc1c[nH]cn1)NC(C)=O)C(C)C)[C@@H](C)O)[C@@H](C)O)C(=O)N[C@@H](C)C(=O)N[C@H](C(=O)N[C@@H](CCCCN)C(=O)N[C@H]1CCCCNC(=O)C[C@@H](C(=O)N[C@H](C(=O)N[C@@H](CC(C)C)C(=O)N[C@H](C(=O)NCC(=O)NCC(=O)N[C@H](C(N)=O)[C@@H](C)O)[C@@H](C)O)C(C)C)NC(=O)[C@H](CC(N)=O)NC(=O)[C@H](CC(C)C)NC(=O)[C@H](Cc2ccc(O)cc2)NC1=O)C(C)C [SEQ ID NO:66, Ac-[p-F-Phe^6,Glu^8,Lys^12,Nle^17,Asp^25,Val^26,Thr^28,Gly^29,30,Thr^31]-VIP cyclo (Lys^21 →Asp^25)] (Ac-HSDAV[Phe(4-F)]TENYTKLRKQ[Nle]AVKKYLNDVLTGGT-NH2; lactam 21-25) | 0.12 | 570
CCCC[C@H](NC(=O)[C@H](CCC(N)=O)NC(=O)[C@H](CCCCN)NC(=O)[C@H](CCCNC(=N)N)NC(=O)[C@H](CC(C)C)NC(=O)[C@H](CCCCN)NC(=O)[C@@H](NC(=O)[C@H](Cc1ccc(O)cc1)NC(=O)[C@H](CC(N)=O)NC(=O)[C@H](CCC(=O)O)NC(=O)[C@@H](NC(=O)[C@H](Cc1ccccc1)NC(=O)[C@@H](NC(=O)[C@H](C)NC(=O)[C@H](CC(=O)O)NC(=O)[C@H](C)NC(=O)[C@H](Cc1c[nH]cn1)NC(C)=O)C(C)C)[C@@H](C)O)[C@@H](C)O)C(=O)N[C@@H](C)C(=O)N[C@H](C(=O)N[C@@H](CCCCN)C(=O)N[C@H]1CCCCNC(=O)C[C@@H](C(=O)N[C@@H](CC(C)C)C(=O)N[C@@H](CCCCN)C(=O)N[C@@H](CCCCN)C(=O)NCC(=O)NCC(=O)N[C@H](C(N)=O)[C@@H](C)O)NC(=O)[C@H](CC(N)=O)NC(=O)[C@H](CC(C)C)NC(=O)[C@H](Cc2ccc(O)cc2)NC1=O)C(C)C [SEQ ID NO:67, Ac-[Ala^2,Glu^8,Lys^12,Nle^17,Asp^25,Leu^26,Lys^27,28,Gly^29,30,Thr^31]-VIP cyclo (Lys^21 →Asp^25)] (Ac-HADAVFTENYTKLRKQ[Nle]AVKKYLNDLKKGGT-NH2; lactam 21-25) | 0.077 | 190
CCCC[C@H](NC(=O)[C@H](CCC(N)=O)NC(=O)[C@H](CCCCN)NC(=O)[C@H](CCCNC(=N)N)NC(=O)[C@H](CC(C)C)NC(=O)[C@H](CCCCN)NC(=O)[C@@H](NC(=O)[C@H](Cc1ccc(O)cc1)NC(=O)[C@H](CC(N)=O)NC(=O)[C@H](CCC(=O)O)NC(=O)[C@@H](NC(=O)[C@H](Cc1ccccc1)NC(=O)[C@@H](NC(=O)[C@H](C)NC(=O)[C@H](CC(=O)O)NC(=O)[C@H](CO)NC(=O)[C@H](Cc1c[nH]cn1)NC(C)=O)C(C)C)[C@@H](C)O)[C@@H](C)O)C(=O)N[C@@H](C)C(=O)N[C@H](C(=O)N[C@@H](CCCCN)C(=O)N[C@H]1CCCCNC(=O)C[C@@H](C(=O)N[C@@H](CC(C)C)C(=O)N[C@@H](CCCCN)C(=O)N[C@@H](CCCCN)C(=O)NCC(=O)NCC(=O)N[C@H](C(N)=O)[C@@H](C)O)NC(=O)[C@H](CC(N)=O)NC(=O)[C@H](CC(C)C)NC(=O)[C@H](Cc2ccc(O)cc2)NC1=O)C(C)C [SEQ ID NO:68, Ac-[Glu^8,Lys^12,Nle^17,Asp^25,Leu^26,Lys^27,28,Gly^29,30,Thr^31]-VIP cyclo (Lys^21 →Asp^25)] (Ac-HSDAVFTENYTKLRKQ[Nle]AVKKYLNDLKKGGT-NH2; lactam 21-25) | 0.04 | 430
CCCC[C@H](NC(=O)[C@H](CCC(N)=O)NC(=O)[C@H](CCCCN)NC(=O)[C@H](CCCNC(=N)N)NC(=O)[C@H](CC(C)C)NC(=O)[C@H](CCCCN)NC(=O)[C@@H](NC(=O)[C@H](Cc1ccc(O)cc1)NC(=O)[C@H](CC(N)=O)NC(=O)[C@H](CC(=O)O)NC(=O)[C@@H](NC(=O)[C@H](Cc1ccccc1)NC(=O)[C@@H](NC(=O)[C@H](C)NC(=O)[C@H](CC(=O)O)NC(=O)[C@H](CO)NC(=O)[C@H](Cc1c[nH]cn1)NC(C)=O)C(C)C)[C@@H](C)O)[C@@H](C)O)C(=O)N[C@@H](C)C(=O)N[C@@H](C)C(=O)N[C@@H](CCCCN)C(=O)N[C@H]1CCCCNC(=O)C[C@@H](C(=O)N[C@@H](CC(C)C)C(=O)N[C@@H](CCCCN)C(=O)N[C@@H](CCCCN)C(=O)N[C@@H](C)C(=O)N[C@@H](C)C(=O)N[C@@H](C)C(N)=O)NC(=O)[C@H](CC(N)=O)NC(=O)[C@H](CC(C)C)NC(=O)[C@H](Cc2ccc(O)cc2)NC1=O [SEQ ID NO:69, Ac-[Lys^12,Nle^17,Ala^19,Asp^25,Leu^26,Lys^27,28,Ala^29-31]-VIP cyclo (Lys^21 →Asp^25)] (Ac-HSDAVFTDNYTKLRKQ[Nle]AAKKYLNDLKKAAA-NH2; lactam 21-25) | 0.04 | 420
CC[C@H](C)[C@H](NC(=O)[C@H](CO)NC(=O)[C@H](CC(N)=O)NC(=O)[C@H](CC(C)C)NC(=O)[C@H](Cc1ccc(O)cc1)NC(=O)[C@H](CCCCN)NC(=O)[C@H](CCCCN)NC(=O)[C@@H](NC(=O)[C@H](C)NC(=O)[C@H](CCSC)NC(=O)[C@H](CCC(N)=O)NC(=O)[C@H](CCCCN)NC(=O)[C@H](CCCNC(=N)N)NC(=O)[C@H](CC(C)C)NC(=O)[C@H](CCCNC(=N)N)NC(=O)[C@@H](NC(=O)[C@H](Cc1ccc(O)cc1)NC(=O)[C@H](CC(N)=O)NC(=O)[C@H](CC(=O)O)NC(=O)[C@@H](NC(=O)[C@H](Cc1ccccc1)NC(=O)[C@@H](NC(=O)[C@H](C)NC(=O)[C@H](CC(=O)O)NC(=O)[C@H](CO)NC(=O)[C@@H](N)Cc1c[nH]cn1)C(C)C)[C@@H](C)O)[C@@H](C)O)C(C)C)C(=O)N[C@@H](CC(C)C)C(=O)N[C@@H](CC(N)=O)C(N)=O [VIP, Vasoactive intestinal peptide, reference compound] | 7.3 | 10000
